Experimental data taken from ChEMBL document CHEMBL4507291 (2021).

Assays:
[1] = target: T1, Mitogen-activated protein kinase kinase kinase kinase 2 (Homo sapiens) (UniProt Q12851); test: MAP4K2 (GCK) Kinase screen; details: Compound concentration 1.0 uM
T1 sequence (whole entry): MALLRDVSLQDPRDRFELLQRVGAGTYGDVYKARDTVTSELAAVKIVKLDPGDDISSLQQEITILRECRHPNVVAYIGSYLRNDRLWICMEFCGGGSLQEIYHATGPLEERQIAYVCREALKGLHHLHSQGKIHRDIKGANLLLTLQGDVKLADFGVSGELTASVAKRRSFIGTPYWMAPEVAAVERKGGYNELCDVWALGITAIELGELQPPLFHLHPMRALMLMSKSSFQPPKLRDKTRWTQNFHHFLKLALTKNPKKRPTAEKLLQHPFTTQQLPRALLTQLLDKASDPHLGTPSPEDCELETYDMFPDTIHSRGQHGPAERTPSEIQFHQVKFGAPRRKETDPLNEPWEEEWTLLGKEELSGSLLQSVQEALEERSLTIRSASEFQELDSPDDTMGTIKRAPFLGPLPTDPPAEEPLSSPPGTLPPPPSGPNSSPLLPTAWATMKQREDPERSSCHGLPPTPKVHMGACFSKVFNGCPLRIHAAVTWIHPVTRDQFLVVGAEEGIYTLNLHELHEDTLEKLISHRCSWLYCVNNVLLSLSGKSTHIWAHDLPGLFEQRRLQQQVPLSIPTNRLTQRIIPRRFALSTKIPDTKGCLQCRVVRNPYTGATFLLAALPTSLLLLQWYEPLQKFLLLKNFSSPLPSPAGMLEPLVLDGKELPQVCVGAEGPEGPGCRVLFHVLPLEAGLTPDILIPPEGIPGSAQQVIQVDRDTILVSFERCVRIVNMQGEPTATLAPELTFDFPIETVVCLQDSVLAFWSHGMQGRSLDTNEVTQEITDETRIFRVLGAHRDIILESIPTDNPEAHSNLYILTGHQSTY

[2] = target: Type-1 angiotensin II receptor (Homo sapiens) (UniProt P30556); details: Compound concentration 10.0 uM
[3] = target: STE20-like serine/threonine-protein kinase (Homo sapiens) (UniProt Q9H2G2); test: SLK Kinase screen; details: Compound concentration 1.0 uM
[4] = target: Insulin receptor-related protein (Homo sapiens) (UniProt P14616); test: INSRR (IRR) Kinase screen; details: Compound concentration 1.0 uM
[5] = target: Phosphodiesterase 3 (Homo sapiens) (UniProt Q14432+Q13370); test: Inhibition of Phosphodiesterase PDE3 at compound concentration of 10.0 uM in the Eurofins-Panlabs enzyme assay (Eurofins_assay_152000); assay type: protein assay; parameters: substrate with concentration 1.01 uM [3H] cAMP + cAMP, incubation time 20 min, incubation temperature 25 C; details: Compound concentration 10.0 uM
[6] = target: Tyrosine-protein kinase JAK2 (Homo sapiens) (UniProt O60674); test: JAK2 Kinase screen; details: Compound concentration 1.0 uM
[7] = target: Adenosine receptor A1 (Homo sapiens) (UniProt P30542); details: Compound concentration 10.0 uM
[8] = target: T2, Serine/threonine-protein kinase Sgk1 (Homo sapiens) (UniProt O00141); test: SGK (SGK1) Kinase screen; details: Compound concentration 1.0 uM
T2 sequence (whole entry): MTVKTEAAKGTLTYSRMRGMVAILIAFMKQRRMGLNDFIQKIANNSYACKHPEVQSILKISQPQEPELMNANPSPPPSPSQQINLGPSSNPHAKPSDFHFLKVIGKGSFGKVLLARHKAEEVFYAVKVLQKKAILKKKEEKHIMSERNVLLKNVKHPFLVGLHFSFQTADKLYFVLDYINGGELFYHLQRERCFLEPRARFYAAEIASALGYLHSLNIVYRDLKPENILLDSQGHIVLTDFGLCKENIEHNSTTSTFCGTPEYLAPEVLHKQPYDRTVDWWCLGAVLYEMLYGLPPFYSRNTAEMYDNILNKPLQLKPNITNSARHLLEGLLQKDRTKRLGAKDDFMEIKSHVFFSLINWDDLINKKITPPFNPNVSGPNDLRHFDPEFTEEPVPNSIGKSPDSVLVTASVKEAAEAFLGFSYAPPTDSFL

[9] = target: Macrophage colony-stimulating factor 1 receptor (Homo sapiens) (UniProt P07333); test: CSF1R (FMS) Kinase screen; details: Compound concentration 1.0 uM
[10] = target: T3, Muscarinic acetylcholine receptor M4 (Homo sapiens) (UniProt P08173); details: Compound concentration 10.0 uM
T3 sequence (whole entry): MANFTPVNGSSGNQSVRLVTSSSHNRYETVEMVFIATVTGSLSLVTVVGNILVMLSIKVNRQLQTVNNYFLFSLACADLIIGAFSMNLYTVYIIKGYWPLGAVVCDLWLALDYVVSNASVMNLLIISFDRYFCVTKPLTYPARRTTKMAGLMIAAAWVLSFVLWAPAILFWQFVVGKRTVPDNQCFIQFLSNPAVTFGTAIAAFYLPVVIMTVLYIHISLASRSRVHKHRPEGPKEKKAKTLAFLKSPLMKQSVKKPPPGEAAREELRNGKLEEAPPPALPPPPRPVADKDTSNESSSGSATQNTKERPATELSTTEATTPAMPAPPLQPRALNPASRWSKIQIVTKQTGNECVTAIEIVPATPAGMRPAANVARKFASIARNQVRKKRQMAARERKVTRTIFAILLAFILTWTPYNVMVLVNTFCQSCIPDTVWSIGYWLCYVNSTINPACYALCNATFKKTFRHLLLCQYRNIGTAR

[11] = target: Tyrosine-protein kinase Lyn (Homo sapiens) (UniProt P07948); test: LYN B Kinase screen; details: Compound concentration 1.0 uM
[12] = system: Hepatocyte growth factor receptor (Homo sapiens), P08581 [M1250T]; test: MET M1250T Kinase screen; details: Compound concentration 1.0 uM
[13] = target: Non-receptor tyrosine-protein kinase TYK2 (Homo sapiens) (UniProt P29597); test: TYK2 Kinase screen; details: Compound concentration 1.0 uM
[14] = target: Tyrosine-protein kinase ABL1 (Homo sapiens) (UniProt P00519); test: ABL1 Kinase screen; details: Compound concentration 1.0 uM
[15] = target: Histamine H2 receptor (Homo sapiens) (UniProt P25021); details: Compound concentration 10.0 uM
[16] = organism: Rattus norvegicus; test: GABAA, Ro-15-1788, Hippocampus Eurofins-Panlabs radioligand binding assay; parameters: ligand concentration 1 nM; details: Compound concentration 10.0 uM
[17] = target: Platelet-activating factor receptor (Homo sapiens) (UniProt P25105); test: Inhibition of Platelet Activating Factor (PAF) at 10 µM in the Eurofins-Panlabs radioligand binding assay (Eurofins_assay_265010); details: Compound concentration 10.0 uM
[18] = target: D(2) dopamine receptor (Homo sapiens) (UniProt P14416); details: Compound concentration 10.0 uM

Measured: inhibition

Insulin receptor-related protein (Homo sapiens), sequence (P14616 27-742 limits assumed): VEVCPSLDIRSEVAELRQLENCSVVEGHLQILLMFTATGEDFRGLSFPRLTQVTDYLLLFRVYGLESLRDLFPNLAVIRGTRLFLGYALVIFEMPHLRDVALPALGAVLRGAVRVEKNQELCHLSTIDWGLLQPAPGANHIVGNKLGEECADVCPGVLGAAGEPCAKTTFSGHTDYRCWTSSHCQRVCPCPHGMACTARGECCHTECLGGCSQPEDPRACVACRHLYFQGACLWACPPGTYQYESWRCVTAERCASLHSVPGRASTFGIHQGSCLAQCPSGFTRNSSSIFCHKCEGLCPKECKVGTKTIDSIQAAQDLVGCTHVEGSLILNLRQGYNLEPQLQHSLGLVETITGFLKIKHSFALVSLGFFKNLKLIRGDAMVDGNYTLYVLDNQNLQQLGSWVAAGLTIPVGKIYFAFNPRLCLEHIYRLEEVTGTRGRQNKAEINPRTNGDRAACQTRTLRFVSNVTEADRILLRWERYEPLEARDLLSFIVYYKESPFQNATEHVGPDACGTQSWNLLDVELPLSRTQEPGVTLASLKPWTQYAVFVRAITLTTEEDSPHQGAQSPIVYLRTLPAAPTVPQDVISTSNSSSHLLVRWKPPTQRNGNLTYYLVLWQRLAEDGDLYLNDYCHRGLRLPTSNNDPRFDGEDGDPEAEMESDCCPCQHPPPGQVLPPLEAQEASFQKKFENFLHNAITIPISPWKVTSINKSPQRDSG
Insulin receptor-related protein (Homo sapiens), sequence (P14616 747-1297 limits assumed): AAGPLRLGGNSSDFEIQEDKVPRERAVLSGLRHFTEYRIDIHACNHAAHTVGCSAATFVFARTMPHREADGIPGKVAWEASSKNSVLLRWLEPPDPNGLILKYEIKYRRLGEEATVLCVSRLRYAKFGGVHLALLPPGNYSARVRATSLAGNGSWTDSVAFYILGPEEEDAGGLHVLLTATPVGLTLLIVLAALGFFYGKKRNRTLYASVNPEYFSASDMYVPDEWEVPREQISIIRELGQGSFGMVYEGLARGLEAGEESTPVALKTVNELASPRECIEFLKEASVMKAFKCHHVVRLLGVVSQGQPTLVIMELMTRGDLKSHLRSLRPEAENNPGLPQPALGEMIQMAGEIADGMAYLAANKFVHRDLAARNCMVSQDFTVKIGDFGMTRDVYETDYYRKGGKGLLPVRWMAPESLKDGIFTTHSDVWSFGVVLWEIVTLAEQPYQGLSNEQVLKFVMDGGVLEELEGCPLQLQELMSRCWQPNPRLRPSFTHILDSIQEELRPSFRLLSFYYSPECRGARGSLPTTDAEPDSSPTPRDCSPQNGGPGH
STE20-like serine/threonine-protein kinase (Homo sapiens), sequence (Q9H2G2 whole entry, looked up): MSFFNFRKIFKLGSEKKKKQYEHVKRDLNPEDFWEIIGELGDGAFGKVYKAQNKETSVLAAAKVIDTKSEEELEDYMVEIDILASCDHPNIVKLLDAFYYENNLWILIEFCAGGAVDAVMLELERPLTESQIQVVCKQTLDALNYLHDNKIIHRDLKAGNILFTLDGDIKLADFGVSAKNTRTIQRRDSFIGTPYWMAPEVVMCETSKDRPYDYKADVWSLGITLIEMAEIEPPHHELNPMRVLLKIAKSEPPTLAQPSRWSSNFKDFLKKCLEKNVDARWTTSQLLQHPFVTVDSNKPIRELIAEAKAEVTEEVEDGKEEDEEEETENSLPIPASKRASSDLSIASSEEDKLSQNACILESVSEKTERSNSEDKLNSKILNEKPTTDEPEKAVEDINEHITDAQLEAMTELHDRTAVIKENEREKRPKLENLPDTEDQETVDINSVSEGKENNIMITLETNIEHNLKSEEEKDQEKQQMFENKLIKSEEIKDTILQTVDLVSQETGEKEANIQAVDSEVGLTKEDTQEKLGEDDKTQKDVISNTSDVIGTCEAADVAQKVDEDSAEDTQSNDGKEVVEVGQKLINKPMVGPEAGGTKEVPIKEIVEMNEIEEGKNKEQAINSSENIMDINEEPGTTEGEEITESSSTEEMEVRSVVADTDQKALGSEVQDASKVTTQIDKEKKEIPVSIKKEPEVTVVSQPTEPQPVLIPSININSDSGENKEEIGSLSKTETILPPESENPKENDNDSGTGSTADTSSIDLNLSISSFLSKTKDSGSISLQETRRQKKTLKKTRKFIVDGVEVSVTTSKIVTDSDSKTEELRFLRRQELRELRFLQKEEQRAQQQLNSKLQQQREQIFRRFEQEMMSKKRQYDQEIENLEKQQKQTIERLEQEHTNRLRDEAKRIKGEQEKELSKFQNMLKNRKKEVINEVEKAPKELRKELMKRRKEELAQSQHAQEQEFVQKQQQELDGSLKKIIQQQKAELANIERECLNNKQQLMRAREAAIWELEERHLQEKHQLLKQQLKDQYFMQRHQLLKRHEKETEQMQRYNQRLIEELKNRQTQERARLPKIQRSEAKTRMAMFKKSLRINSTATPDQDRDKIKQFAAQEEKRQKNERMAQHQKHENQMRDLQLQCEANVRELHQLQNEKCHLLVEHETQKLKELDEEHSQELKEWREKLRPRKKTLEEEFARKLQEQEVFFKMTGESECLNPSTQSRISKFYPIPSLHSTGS
Hepatocyte growth factor receptor (Homo sapiens), P08581 [M1250T], sequence (P08581 whole entry M1250T): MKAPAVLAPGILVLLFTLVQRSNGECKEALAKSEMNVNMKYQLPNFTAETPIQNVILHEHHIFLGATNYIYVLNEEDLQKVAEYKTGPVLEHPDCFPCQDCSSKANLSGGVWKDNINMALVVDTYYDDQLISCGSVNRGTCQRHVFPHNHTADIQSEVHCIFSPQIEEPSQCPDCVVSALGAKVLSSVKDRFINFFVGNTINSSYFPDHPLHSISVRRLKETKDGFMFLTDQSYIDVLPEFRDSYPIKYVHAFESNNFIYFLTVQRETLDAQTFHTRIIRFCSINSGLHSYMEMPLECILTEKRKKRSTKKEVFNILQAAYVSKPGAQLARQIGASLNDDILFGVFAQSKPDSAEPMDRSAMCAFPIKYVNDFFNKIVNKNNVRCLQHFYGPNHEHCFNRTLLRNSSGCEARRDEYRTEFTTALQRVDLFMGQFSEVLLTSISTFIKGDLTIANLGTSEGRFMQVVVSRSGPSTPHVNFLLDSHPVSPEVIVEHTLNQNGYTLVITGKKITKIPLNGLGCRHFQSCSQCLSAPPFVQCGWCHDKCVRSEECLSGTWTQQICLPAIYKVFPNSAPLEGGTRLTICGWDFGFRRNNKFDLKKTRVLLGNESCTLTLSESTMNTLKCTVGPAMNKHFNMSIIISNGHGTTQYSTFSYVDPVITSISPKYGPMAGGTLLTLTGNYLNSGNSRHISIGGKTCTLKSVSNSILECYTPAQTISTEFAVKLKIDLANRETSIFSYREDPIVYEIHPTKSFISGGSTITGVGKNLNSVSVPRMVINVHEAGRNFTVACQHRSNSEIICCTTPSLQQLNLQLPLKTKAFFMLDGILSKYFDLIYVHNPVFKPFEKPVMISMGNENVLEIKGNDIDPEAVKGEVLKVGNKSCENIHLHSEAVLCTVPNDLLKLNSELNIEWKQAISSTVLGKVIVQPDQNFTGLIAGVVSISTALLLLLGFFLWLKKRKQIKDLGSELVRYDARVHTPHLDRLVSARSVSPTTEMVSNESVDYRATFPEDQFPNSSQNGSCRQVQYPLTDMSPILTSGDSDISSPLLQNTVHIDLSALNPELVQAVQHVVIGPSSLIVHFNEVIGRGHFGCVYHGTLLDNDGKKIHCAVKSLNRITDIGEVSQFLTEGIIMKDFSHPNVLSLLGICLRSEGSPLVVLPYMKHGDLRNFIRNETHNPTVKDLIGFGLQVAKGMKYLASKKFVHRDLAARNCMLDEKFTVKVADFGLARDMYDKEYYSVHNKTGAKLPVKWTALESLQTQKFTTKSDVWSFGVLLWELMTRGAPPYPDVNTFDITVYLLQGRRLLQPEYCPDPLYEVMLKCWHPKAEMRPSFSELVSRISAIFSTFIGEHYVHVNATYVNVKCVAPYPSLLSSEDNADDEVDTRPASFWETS
Type-1 angiotensin II receptor (Homo sapiens), sequence (P30556 whole entry): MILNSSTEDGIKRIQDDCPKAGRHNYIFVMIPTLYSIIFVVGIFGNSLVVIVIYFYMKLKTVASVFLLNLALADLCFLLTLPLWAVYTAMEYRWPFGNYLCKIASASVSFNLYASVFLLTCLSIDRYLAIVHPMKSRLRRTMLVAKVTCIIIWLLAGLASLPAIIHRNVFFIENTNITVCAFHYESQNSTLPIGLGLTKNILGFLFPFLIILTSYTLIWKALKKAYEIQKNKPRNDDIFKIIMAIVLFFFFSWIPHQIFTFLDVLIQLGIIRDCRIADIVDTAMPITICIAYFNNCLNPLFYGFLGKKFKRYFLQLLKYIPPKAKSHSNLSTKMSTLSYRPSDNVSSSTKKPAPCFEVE
Adenosine receptor A1 (Homo sapiens), sequence (P30542 whole entry): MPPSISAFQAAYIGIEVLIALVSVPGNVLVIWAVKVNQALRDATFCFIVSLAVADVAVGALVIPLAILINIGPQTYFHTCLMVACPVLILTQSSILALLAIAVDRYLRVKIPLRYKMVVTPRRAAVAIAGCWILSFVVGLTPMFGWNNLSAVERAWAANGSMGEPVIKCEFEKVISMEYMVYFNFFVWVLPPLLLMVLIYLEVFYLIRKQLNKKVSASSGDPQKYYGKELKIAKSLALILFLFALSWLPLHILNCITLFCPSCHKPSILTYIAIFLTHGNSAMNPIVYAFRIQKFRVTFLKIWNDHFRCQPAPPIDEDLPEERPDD
Histamine H2 receptor (Homo sapiens), sequence (P25021 whole entry): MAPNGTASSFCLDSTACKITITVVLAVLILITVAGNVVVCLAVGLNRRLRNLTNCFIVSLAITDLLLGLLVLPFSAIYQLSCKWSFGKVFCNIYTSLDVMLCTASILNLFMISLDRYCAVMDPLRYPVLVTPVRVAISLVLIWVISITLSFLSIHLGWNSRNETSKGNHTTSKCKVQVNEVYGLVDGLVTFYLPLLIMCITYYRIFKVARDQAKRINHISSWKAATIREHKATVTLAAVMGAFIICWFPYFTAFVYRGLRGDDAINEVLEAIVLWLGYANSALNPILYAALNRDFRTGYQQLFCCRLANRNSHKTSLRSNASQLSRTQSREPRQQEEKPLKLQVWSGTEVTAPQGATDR

C[C@@H]1CN(c2cc(-c3n[nH]c4ccc(OC5(C)CC5)cc34)ncn2)C[C@H](C)O1 [MLi-2]
inactive: [1] 30.9% | [2] 8% | [3] 1.5% | [4] 21.1% | [5] 21% | [6] 5.78% | [7] 29% | [8] -1.63% | [9] 6.91% | [10] 26% | [11] 3.94% | [12] 2.2% | [13] 1.17% | [14] 1.09% | [15] 2% | [16] 1% | [17] 33%

C[C@@H]1CN(c2cc(-c3nn(C)c4ccc(OC5(C)CC5)cc34)ncn2)C[C@H](C)O1 [MLi-2-NC]
inactive: [18] -0.18%
